# Data published in US11440923B2, “Substituted macrocyclic indole derivatives” (Bayer Aktiengesellschaft, priority 2017, dated 2022).
# Counter-ions that a name gives are not always drawn. Like-named read-outs stand apart in the source and are kept apart here.
# Key:
# MV-4-11 cells = experiment: Antiproliferation assay MV-4-11 (Assay 7); type: cell-based; details: CellTiter-Glo, read-out: Antiproli MV-4-11 IC50 median
# In short: (§1)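 After overnight attachment at 37 °C, cells received compound for 72 h in a humidified incubator. Viability was read by CellTiter-Glo luminescence. A separate day 0 plate defined starting cell number for IC50 fitting against DMSO controls.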
# SNU-389 cells = experiment: Antiproliferation assay SNU-389 (Assay 7); type: cell-based; details: 72 h, read-out: Antiproli SNU-389 IC50
# In short: as §1
# MCL-1 = MCL-1 (Homo sapiens (Human), UniProt Q07820, K194A/K197A/R201A); experiment: Protein-compound interaction assay (SPR assay, Assay 9); type: binding; details: for Kd: KD (geometric mean), SPR, 25° C.; for koff: read-out: koff (geometric mean), SPR, 25° C.; for kon: read-out: kon (geometric mean), SPR, 25° C.
# Source text: Assay 9 Protein-Compound Interaction Assay (SPR Assay)
# The ability of the compounds described in this invention to bind to MCL-1 may be determined using surface plasmon resonance (SPR). This allows for the quantification of binding in terms of the equilibrium dissociation constant (KD [M]), as well as association and dissociation rate constants (kon [1/Ms] and koff [1/s], respectively). The measurements may be performed using Biacore® T200 or Biacore® S200 instruments (GE Healthcare).
# Briefly, carboxymethylated dextran biosensor chips (Series S Sensor Chip CMS, GE Healthcare) were activated with 1-ethyl-3-(3-dimethylaminopropyl)-carbodiimide hydrochloride (EDC) and N-hydroxysuccinimide (NHS) according to the supplier's instructions. MBP-MCL-1 was diluted in 1×PBS-P+ (GE Healthcare) and injected on the activated chip surface. Subsequently, a solution of 1 M ethanolamine-HCl (GE Healthcare) was injected to block unreacted groups, resulting in approximately 400-2500 response units (RU) of immobilized protein. A reference surface was generated by treatment with NHS-EDC and ethanolamine-HCl. […] Compounds were injected for 60 s followed by a dissociation time of up to 1000 s.
# The double-referenced sensorgrams were fit to a simple reversible Langmuir 1:1 reaction mechanism as implemented in the Biacore® T200 and S200 evaluation software (T200 evaluation software version 2.0 and S200 evaluation software version 1.0, GE Healthcare).
# [1] = target: MCL1 protein / biotinylated BIM BH3 peptide in RKO cells (Homo sapiens (Human), UniProt Q07820); experiment: PIxEL: protein-protein interaction in permeabilized cells by ELISA (Assay 5); type: cell-based; details: PIxEL IC50 (median)
# In short: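 Digitonin (0.002%)-permeabilized RKO cells in MEB buffer pH 7.5 were treated with compound (3-fold series, top 30 μM) plus 0.2 μM biotin-BIM BH3 peptide for 1 h at room temperature. Lysates were captured on anti-MCL1 ELISA plates and bound peptide read by streptavidin-HRP luminescence. IC50 came from signal normalized to no-compound and no-cell controls.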
# PA-1 cells = experiment: Antiproliferation assay PA-1 (Assay 7); type: cell-based; details: Homo sapiens, read-out: Antiproli PA-1 IC50 median
# Experimental: (§2) Assessment of the Anti-Proliferative Effect of Compounds in Different Cell Lines
# (§3) The impact of compounds on the proliferation of different cell lines was assessed using the CellTiter-Glo® Luminescent Cell Viability reagent from Promega (G7573).
# (§4) In parallel, cells were plated in a reference (day 0) plate for time zero determination. Cells were incubated in a humidified incubator at 37° C. overnight.
# (§5) Rim wells were excluded. The cells were incubated for 72 h hours in a humidified incubator at 37° C. The day 0 plate was measured by adding 30 μL/well of CTG solution (CellTiter-Glo® Luminescent Cell Viability reagent, Promega G7573) to time zero wells in the reference plate followed by a 10 minutes incubation and luminescence reading at 0.1 ms. using the PHERAstar FS microplate reader (BMG Labtech).
# (§6) After 72 h incubation, the treated plates were measured in the same way as the day 0 plate mentioned above. The Bella DRC Master Sheet was used to calculate IC50s, with CI=day 0 values and C0=DMSO control values.
# DMS-114 cells = experiment: Antiproliferation assay DMS-114 (Assay 7); type: cell-based; details: Homo sapiens, read-out: Antiproli DM-S114 IC50 median
# In short: as §1
# A2780 cells = experiment: Antiproliferation assay A2780 (Assay 7); type: cell-based
# Experimental: as §2, §3, §4, §5, §6
# [2] = DMS-114 cells, 72 h, CellTiter-Glo
# MCL1 protein / biotinylated BIM BH3 peptide in RKO cells, sequence (Q07820 whole entry): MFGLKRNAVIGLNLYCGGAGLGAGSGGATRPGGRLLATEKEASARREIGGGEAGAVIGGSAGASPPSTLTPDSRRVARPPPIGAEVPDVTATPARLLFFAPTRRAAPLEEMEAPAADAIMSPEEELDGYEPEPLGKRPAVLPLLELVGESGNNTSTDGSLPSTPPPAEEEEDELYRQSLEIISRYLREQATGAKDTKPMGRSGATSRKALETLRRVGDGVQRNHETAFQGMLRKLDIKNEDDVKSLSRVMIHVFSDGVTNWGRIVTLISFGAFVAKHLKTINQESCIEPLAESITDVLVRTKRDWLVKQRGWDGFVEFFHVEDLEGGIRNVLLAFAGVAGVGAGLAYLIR
# MCL-1, sequence (Q07820 whole entry K194A/K197A/R201A, looked up): as the sequence (Q07820 whole entry) above, with K194A, K197A, R201A counted along it
SMILES,IC50 (SNU-389 cells; CellTiter-Glo) [nM],Kd (MCL-1) [nM],koff (MCL-1) [s⁻¹],kon (MCL-1) [M⁻¹ s⁻¹],IC50 [1] [nM],"IC50 (PA-1 cells; PA-1, 72 h, CellTiter-Glo) [nM]",IC50 (DMS-114 cells; [2]) [nM],other results
"Cc1c2c(nn1C)C(CCN1CCOCC1)OCCCCn1c(C(=O)O)c(CCCOc3cccc4cc(F)ccc34)c3ccc(Cl)c-2c31 (racemic) [Example 16, (rac)-4-chloro-7-{3-[(6-fluoronaphthalen-1-yl)oxy]propyl}-2,3-dimethyl-15-[2-(morpholin-4-yl)ethyl]-2,10,11,12,13,15-hexahydropyrazolo[4′,3′:9,10][1,6]oxazacycloundecino[8,7,6-hi]indole-8-carboxylic Acid]",118,–,–,–,–,–,–,"IC50 (MV-4-11 cells; Homo sapiens, MV4-11, 72 h): 34.6 nM"
"CCc1c2c(nn1C)C(CCC1CCOCC1)OCCCCn1c(C(=O)O)c(CCCOc3cccc4cc(F)ccc34)c3ccc(Cl)c-2c31 (single isomer, unassigned; enantiomer 1) [Example 63, (+)-4-chloro-3-ethyl-7-{3-[(6-fluoronaphthalen-1-yl)oxy]propyl}-2-methyl-15-[2-(oxan-4-yl)ethyl]-2,10,11,12,13,15-hexahydropyrazolo[4′,3′:9,10][1,6]oxazacycloundecino[8,7,6-hi]indole-8-carboxylic Acid—N-ethylethanamine Salt (Enantiomer 1)]",–,1.4,0.0016,1.1e+06,14.2,–,–,"IC50 (PA-1 cells; PA-1, 72 h): 204 nM; IC50 (SNU-389 cells): 183 nM; IC50 (DMS-114 cells; DMS-114, 72 h): 156 nM"
"Cc1c2c(nn1C)C(CCN1CCOCC1)OCCCCn1c(C(=O)O)c(CCCOc3cccc4cc(F)ccc34)c3ccc(F)c-2c31 (single isomer, unassigned; enantiomer 1) [Example 20, 4-fluoro-7-{3-[(6-fluoronaphthalen-1-yl)oxy]propyl}-2,3-dimethyl-15-[2-(morpholin-4-yl)ethyl]-2,10,11,12,13,15-hexahydropyrazolo[4′,3′:9,10][1,6]oxazacycloundecino[8,7,6-hi]indole-8-carboxylic Acid—N-ethylethanamine (Enantiomer 1)]",–,0.56,0.018,3.2e+07,100,–,–,"IC50 (PA-1 cells; PA-1, 72 h): 304 nM; IC50 (SNU-389 cells): 437 nM; IC50 (DMS-114 cells; DMS-114, 72 h): 222 nM"
"Cc1c2c(nn1C)C(C)OCCCCn1c(C(=O)O)c(CCCOc3cccc4ccccc34)c3cccc-2c31 (racemic) [Example 1, (rac)-2,3,15-trimethyl-7-[3-(naphthalen-1-yloxy)propyl]-2,10,11,12,13,15-hexahydropyrazolo[4′,3′:9,10][1,6]oxazacycloundecino[8,7,6-hi]indole-8-carboxylic Acid (Mixture of Stereoisomers)]",–,–,–,–,–,–,–,"IC50 (A2780 cells; Homo sapiens, A2780, 72 h, CellTiter-Glo, read-out: Antiproli A2780 IC50 median): 19500 nM"
"Cc1c2c(nn1C)C(C)OCCCCn1c(C(=O)O)c(CCCOc3cccc4ccccc34)c3cccc-2c31 (single isomer, unassigned; stereoisomer 1) [Example 2, 2,3,15-trimethyl-7-[3-(naphthalen-1-yloxy)propyl]-2,10,11,12,13,15-hexahydropyrazolo[4′,3′:9,10][1,6]oxazacycloundecino[8,7,6-hi]indole-8-carboxylic Acid Trifluoroacetic Acid Salt (Stereoisomer 1)]",–,11,0.067,5.9e+06,–,–,–,"IC50 (A2780 cells; read-out: Antiproli A2780 IC50 median, 72 h, CellTiter-Glo, listed as 02): 22800 nM"
"CCc1c2c(nn1C)C(CCN1CCOCC1)OCCCCn1c(C(=O)O)c(CCCOc3cccc4cc(F)ccc34)c3ccc(F)c-2c31 (single isomer, unassigned; enantiomer 1) [Example 50, (+)-3-ethyl-4-fluoro-7-{3-[(6-fluoronaphthalen-1-yl)oxy]propyl}-2-methyl-15-[2-(morpholin-4-yl)ethyl]-2,10,11,12,13,15-hexahydropyrazolo[4′,3′:9,10][1,6]oxazacycloundecino[8,7,6-hi]indole-8-carboxylic Acid (Enantiomer 1)]",455,0.36,0.009,2.5e+07,36.8,222,153,–
"Cc1c2c(nn1C)C(CCN1CCOCC1)OCCCCn1c(C(=O)O)c(CCCOc3cccc4ccccc34)c3ccc(Cl)c-2c31 (single isomer, unassigned; enantiomer 1) [Example 14, 4-chloro-2,3-dimethyl-15-[2-(morpholin-4-yl)ethyl]-7-{3-[(naphthalen-1-yl)oxy]propyl}-2,10,11,12,13,15-hexahydropyrazolo[4′,3′:9,10][1,6]oxazacycloundecino[8,7,6-hi]indole-8-carboxylic Acid (Enantiomer 1)]",183,1.3,0.031,2.3e+07,83.4,–,150,IC50 (MV-4-11 cells; 72 h): 37.6 nM
"Cc1c2c(nn1C)C(C)OCCCCn1c(C(=O)O)c(CCCOc3cccc4ccccc34)c3cccc-2c31 (single isomer, unassigned; stereoisomer 2) [Example 3, 2,3,15-trimethyl-7-[3-(naphthalen-1-yloxy)propyl]-2,10,11,12,13,15-hexahydropyrazolo[4′,3′:9,10][1,6]oxazacycloundecino[8,7,6-hi]indole-8-carboxylic Acid Trifluoroacetic Acid Salt (Stereoisomer 2)]",–,–,–,–,–,–,–,"IC50 (A2780 cells; Homo sapiens, A2780, 72 h, read-out: Antiproli A2780 IC50 median, 72 h, CellTiter-Glo): 29900 nM"
"CCc1c2c(nn1C)C(CCN1CC(F)(F)C1)OCCCCn1c(C(=O)O)c(CCCOc3cccc4cc(F)ccc34)c3ccc(Cl)c-2c31 (single isomer, unassigned; (+)) [Example 78, (+)-4-chloro-15-[2-(3,3-difluoroazetidin-1-yl)ethyl]-3-ethyl-7-{3-[(6-fluoronaphthalen-1-yl)oxy]propyl}-2-methyl-2,10,11,12,13,15-hexahydropyrazolo[4′,3′:9,10][1,6]oxazacycloundecino[8,7,6-hi]indole-8-carboxylic Acid—N-ethylethanamine Salt]",151,0.33,0.0012,3.5e+06,43.4,127,88.5,–
"CCc1c2c(nn1C)C(CCC(C)(C)O)OCCCCn1c(C(=O)O)c(CCCOc3cccc4cc(F)ccc34)c3ccc(Cl)c-2c31 (single isomer, unassigned; enantiomer 1) [Example 75, (+)-4-chloro-3-ethyl-7-{3-[(6-fluoronaphthalen-1-yl)oxy]propyl}-15-(3-hydroxy-3-methylbutyl)-2-methyl-2,10,11,12,13,15-hexahydropyrazolo[4′,3′:9,10][1,6]oxazacycloundecino[8,7,6-hi]indole-8-carboxylic Acid—N-ethylethanamine Salt (Enantiomer 1)]",133,0.24,0.0022,9e+06,27.5,118,77.4,–
